Experimental data as given in patent publication US20120270771A1, “APOLIPOPROTEIN A-1 MIMIC PEPTIDES, AND THERAPEUTIC AGENT FOR TREATING HYPERLIPIDEMIA AND DISEASES RELATED TO HYPERLIPIDEMIA COMPRISING SAME” (SNU R&DB FOUNDATION, priority 2009, published 2012).
Square brackets hold non-standard residues; d marks the D form. 2Nal = N[C@@H](Cc1ccc2ccccc2c1)C(=O)O

Tests used:
[1] = tryptophan fluorescence measurement of peptide with or without liposome (LUV); assay type: binding; conditions: for dependence of tryptophan fluorescence intensity on the relative amount of cholesterol in the liposome: LUVs containing cholesterol at 0%, 10%, 20%, 30% and 40%, FIG. 5; for tryptophan fluorescence intensity measured under LUV condition (ratio with or without liposome): 1 μM peptide, liposome 0.1 mg/ml; for tryptophan fluorescence intensity measured under LUV condition (ratio with or without liposome) / increase in fluorescence intensity in the lipid environment when compared to in aqueous solution: FIG. 4; for increase in fluorescence intensity in the lipid environment when compared to in aqueous solution: tryptophan fluorescence
Method: Total 10 mg of lipid compound was prepared by mixing phosphatidylcholine (soybean) and the LUVs containing cholesterol at 0%, 10%, 20%, 30% and 40%. The lipid compound was dissolved in 2 mL of solution containing 2:1 volumes of chloroform and methanol. The solvent is removed by using distillation condensation device and yielding a thin lipid film in the flask. The lipid film is hydrated by adding 1 mL of tertiary distilled water. Liposomes of the same size were generated by extruding the solution through a […] filter for 5 times, and 0.1 μm polycarbonate filter for 5 times using a cylinder fitted with a high pressure regulator. The amount of cholesterol contained in the liposome was measured by using cholesterol Lab-assay kit.
Fluorescence Anisotropy was measured using AMINCO-Bowman Series Luminescence Spectrometer at 20° C. For the buffer system, 10 mM HEPES (N-2-Hydroxyethylpiperazine-N′-2-Ethanesulfonic Acid, pH 7.4) containing 140 mM NaCl, 1 mM EDTA (ethylenediaminetetraacetic acid) was used. The concentration of the peptide was 500 μM and was kept at 0° C. The fluorescence emission spectrum was monitored by adding […] of peptide with 499 μl buffer solution to a final concentration of 1 μM. Liposome was added to the above buffer and peptide mixture solution to the final concentration of 0.1 mg/ml. The ratio of the intensity was calculated by measuring the spectrum in the condition of with or without liposome.

[2] = test system: macrophage cell line; test: cholesterol efflux assay in macrophage cells loaded with 3H-labeled cholesterol; assay type: cell-based, Human; conditions: 20 μM peptide, 4 hr incubation
Method: The present inventors determined the calculated mass value of the Apo A-I mimic peptide and the actual mass value of the A-1 mimic peptide acquired following the synthesis and purification step (see Table 1). In addition, cholesterol efflux was analyzed to screen the peptides. Human macrophage cells were treated with ^3H radioisotope labeled cholesterol. Next, the cells were treated with each of the peptide prepared from above. The amount of high density lipoprotein (HDL) produced was analyzed by measuring the amount of intracellular cholesterol and extracellular cholesterol released from the macrophage. […] There was a significant increase in cholesterol efflux when phenylalanine was substituted with tryptophan or naphthylalanine (see FIG. 3).
In order to screen which of the peptide synthesized from Example 1 mimics the Apo A-I, cholesterol efflux assay was performed by treating the macrophage cell line with the peptides. In particular, DMEM (Dulbecco's Modified Eagle medium) containing penicillin-streptomycin and 10% FBS (Fetal Bovine Serum) was used as the cell culture medium. […] The culture medium and the cells were separated to measure the radioactivity using Liquid Scintillation Counter. The level of cholesterol efflux was determined by measuring the ratio of isotope labeled cholesterol remained in the cell and in the cell culture medium, respectively.

Row | Substance | dependence of tryptophan fluorescence intensity on the relative amount of cholesterol in the liposome [1] | tryptophan fluorescence intensity measured under LUV condition (ratio with or without liposome) [1] | increase in fluorescence intensity in the lipid environment when compared to in aqueous solution [1] | increase in cholesterol efflux when compared to peptide 4F [2]
1 | Ac-DWFAKDYFKKAFVEEFAK (Ac-DWFAKDYFKKAFVEEFAK-NH2) [Sc-4F, negative control group of 4F, reference compound] | irrelevant to the concentration of cholesterol |  |  | 
2 | Ac-DWFKAFYDKVAEKFKEAF (Ac-DWFKAFYDKVAEKFKEAF-NH2) [4F, existing Apo A-I mimic peptide, first generation amphiphilic alpha helix peptide containing 4 phenylalanine, reference compound] | irrelevant to the concentration of cholesterol | about 1.9 |  | 
3 | Ac-EWFKAFYDKVAEKFKEAF (Ac-EWFKAFYDKVAEKFKEAF-NH2) [1a] |  | ~2.1 | about 2.1 fold | 
4 | Ac-EWNal2KAFYDKVAEKFKEANal2 (Ac-EW[2Nal]KAFYDKVAEKFKEA[2Nal]-NH2; SMILES CC(=O)N[C@@H](CCC(=O)O)C(=O)N[C@@H](Cc1c[nH]c2ccccc12)C(=O)N[C@@H](Cc1ccc2ccccc2c1)C(=O)N[C@@H](CCCCN)C(=O)N[C@@H](C)C(=O)N[C@@H](Cc1ccccc1)C(=O)N[C@@H](Cc1ccc(O)cc1)C(=O)N[C@@H](CC(=O)O)C(=O)N[C@@H](CCCCN)C(=O)N[C@H](C(=O)N[C@@H](C)C(=O)N[C@@H](CCC(=O)O)C(=O)N[C@@H](CCCCN)C(=O)N[C@@H](Cc1ccccc1)C(=O)N[C@@H](CCCCN)C(=O)N[C@@H](CCC(=O)O)C(=O)N[C@@H](C)C(=O)N[C@@H](Cc1ccc2ccccc2c1)C(N)=O)C(C)C) [2s] | significant increase of fluorescence intensity according to the increased concentration of the cholesterol inside the liposome | about 4.3 | about 4.30 fold | about 300%
